Measured values taken from article PMC4148167 (Journal of Medicinal Chemistry, 2014).
In brackets after ≈: the same amount, converted by molar mass.

Columns and labels:
Molm-14 AML cells = assay: soft agar colony formation, Molm-14; format: cell-based; details: 2 weeks, negative control 20 at 50 nM
A549 NSCLC cells = assay: soft agar colony formation, A549; format: cell-based; details: 2 weeks, negative control 20 at 300 nM
305 kinases = assay: Carna Biosciences kinome profile at 100 nM; format: biochemical; details: in duplicate
kinetic solubility = format: physicochemical; details: normal saline, pH 7.4
Mer = target: T1, Mer (Homo sapiens, UniProt Q12866); assay: pharmacodynamic study: Mer phosphorylation in bone marrow leukemia cells in vivo; parameters: species or system NOD/SCID/gamma mice with 697 human leukemia xenografts; details: single 3 mg/kg oral dose, 30 min after dosing
T1 sequence (Q12866 21-999): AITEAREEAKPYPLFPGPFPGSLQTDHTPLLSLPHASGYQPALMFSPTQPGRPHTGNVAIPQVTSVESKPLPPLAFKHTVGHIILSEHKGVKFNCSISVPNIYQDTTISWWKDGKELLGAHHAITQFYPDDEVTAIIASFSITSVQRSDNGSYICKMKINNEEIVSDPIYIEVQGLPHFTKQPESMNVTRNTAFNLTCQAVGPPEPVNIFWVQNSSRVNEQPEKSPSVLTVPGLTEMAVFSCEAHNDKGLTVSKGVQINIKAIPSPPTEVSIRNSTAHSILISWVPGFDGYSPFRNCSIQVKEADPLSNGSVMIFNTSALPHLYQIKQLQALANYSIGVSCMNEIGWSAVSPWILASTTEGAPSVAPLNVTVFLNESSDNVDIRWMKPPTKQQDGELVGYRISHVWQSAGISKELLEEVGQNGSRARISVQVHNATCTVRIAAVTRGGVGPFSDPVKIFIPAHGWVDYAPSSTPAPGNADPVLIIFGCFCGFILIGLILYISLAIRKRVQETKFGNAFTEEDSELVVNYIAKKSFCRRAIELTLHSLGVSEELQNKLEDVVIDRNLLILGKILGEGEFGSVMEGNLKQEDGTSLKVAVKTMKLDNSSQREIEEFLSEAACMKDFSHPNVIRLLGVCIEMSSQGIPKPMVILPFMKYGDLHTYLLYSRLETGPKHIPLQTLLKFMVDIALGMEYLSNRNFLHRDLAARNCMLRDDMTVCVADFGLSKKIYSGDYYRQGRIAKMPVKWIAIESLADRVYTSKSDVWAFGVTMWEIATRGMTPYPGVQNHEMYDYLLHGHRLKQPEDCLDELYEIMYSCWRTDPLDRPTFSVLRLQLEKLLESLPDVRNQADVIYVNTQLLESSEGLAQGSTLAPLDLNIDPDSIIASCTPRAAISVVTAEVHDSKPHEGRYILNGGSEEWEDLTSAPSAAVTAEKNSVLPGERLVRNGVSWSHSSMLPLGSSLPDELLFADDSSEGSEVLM

solubility kinetic (kinetic solubility) [µg/mL]	decrease of Mer phospho-protein levels in bone marrow leukemia cells (Mer)	Structure (SMILES)	effect on colony formation in soft agar, Molm-14 AML (Molm-14 AML cells)	effect on colony formation in soft agar, A549 NSCLC (A549 NSCLC cells)	number of kinases inhibited by more than 50% (305 kinases)
–	–	CCCCN(C)c1ncc2c(-c3ccc(CN4CCN(C)CC4)cc3)cn([C@H]3CC[C@H](O)CC3)c2n1 [Compound 20]	no significant effect	no significant effect	–
38 (≈ 79.7 µM)	greater than 90%	CCCCNc1ncc2c(-c3ccc(CN4CCN(C)CC4)cc3)cn([C@H]3CC[C@H](O)CC3)c2n1 [Compound 11]	significant inhibition of colony formation	significant inhibition of colony formation	Sixty-six
